The results in this text go back to patent US20230031406A1, “COMPOUNDS AND COMPOSITIONS FOR TREATING CONDITIONS ASSOCIATED WITH NLRP ACTIVITY” (Novartis AG, priority 2018, published 2023).

For the experiment, the system named is PMA-differentiated THP-1 cells. The experiment is described as follows: IL-1β production in PMA-differentiated THP-1 cells stimulated with gramicidin (hTHP-1 assay containing 2% fetal bovine serum; Procedures 1 and 2). Conditions: 2% fetal bovine serum. The class given is cell-based, human. In a few lines: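 IL-1β release from PMA-differentiated THP-1 macrophage-like cells was triggered by 5 μM gramicidin for 2 h after 1 h compound exposure, then measured by HTRF.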

The mark [1] stands for this setting: Table B2, class symbols, read-out: hTHP-1 IC50.
Where [2] appears, read: Table B3, hTHP-1 assay, class symbols, read-out: IC50.
[3] abbreviates: Table B4, class symbols, read-out: hTHP-1 IC50.
Setting [4] is: Homo sapiens, THP-1, Table B4, class symbols, read-out: hTHP-1 IC50.
[5] abbreviates: Homo sapiens, THP-1, Table B2, class symbols, read-out: hTHP-1 IC50.
Setting [6] is: Homo sapiens, THP-1, Table B3, hTHP-1 assay, class symbols, read-out: IC50.

Where two headings read alike, the source gives them in different places.

Regarding `Cc1c(C(F)(F)F)nc2c(c1NC(=O)N=S(N)(=O)c1ccn(C(F)F)n1)CCC2` (single isomer, unassigned) [Compound 621b, (R) or (S)-1-(Difluoromethyl)-N′-((3-methyl-2-(trifluoromethyl)-6,7-dihydro-5H-cyclopenta[b]pyridin-4-yl)carbamoyl)-1H-pyrazole-3-sulfonimidamide], the IC50 (in general, the concentration needed to halve the response being measured) under setting [1] was 1000 to 5000 nM.
In the case of `CCn1cc(F)c(S(N)(=O)=NC(=O)Nc2c3c(nc4c2CC[C@@H]4C)CCC3)n1` (single isomer, unassigned) [Example 712, (S) or (R)-1-ethyl-4-fluoro-N′-(((S)-3-methyl-1,2,3,5,6,7-hexahydrodicyclopenta[b,e]pyridin-8-yl)carbamoyl)-1H-pyrazole-3-sulfonimidamide], the IC50 under setting [2] fell in the range of 5000 to 30000 nM.
Consider `Cc1c(C(F)(F)F)nc2c(c1NC(=O)N=S(N)(=O)c1cc(CO)n(C(C)C)n1)CCC2` (single isomer, unassigned) [Example 720, (R) or (S)-5-(hydroxymethyl)-1-isopropyl-N′-((3-methyl-2-(trifluoromethyl)-6,7-dihydro-5H-cyclopenta[b]pyridin-4-yl)carbamoyl)-1H-pyrazole-3-sulfonimidamide], for which the IC50 (Homo sapiens, THP-1, Table B3, hTHP-1 assay, numeric values, read-out: IC50) was roughly 30000 nM.
In the case of `Cc1c(C(C)C)nc2c(c1NC(=O)N=S(N)(=O)c1ccn(C(C)C)n1)CCC2` (single isomer, unassigned) [Compound 644a, (S) or (R)-1-Isopropyl-N′-((2-isopropyl-3-methyl-6,7-dihydro-5H-cyclopenta[b]pyridin-4-yl)carbamoyl)-1H-pyrazole-3-sulfonimidamide], the concentration for half-maximal inhibition (IC50) (Homo sapiens, THP-1, Table B2, numeric bounds, read-out: hTHP-1 IC50) was greater than 30000 nM.
On to `CCn1cc(F)c(S(N)(=O)=NC(=O)Nc2c3c(nc4c2CCC4)CCC3)n1` (single isomer, unassigned) [Example 762, (S) or (R)-1-ethyl-4-fluoro-N′-((1,2,3,5,6,7-hexahydrodicyclopenta[b,e]pyridin-8-yl)carbamoyl)-1H-pyrazole-3-sulfonimidamide], for which the IC50 under setting [3] fell in the range of 5000 to 30000 nM.
With `CCn1cc(F)c(S(N)(=O)=NC(=O)Nc2c3c(nc(C(F)(F)F)c2-c2ccccc2)CCC3)n1` (centres unmarked) [Example 742, 1-Ethyl-4-fluoro-N′-((3-phenyl-2-(trifluoromethyl)-6,7-dihydro-5H-cyclopenta[b]pyridin-4-yl)carbamoyl)-1H-pyrazole-3-sulfonimidamide], the IC50 under setting [4] fell in the range of 8 to 40 nM.
As for `CC1(C)CCc2c1nc1c(c2NC(=O)N=S(N)(=O)c2sc(C(C)(O)CO)cc2F)CCC1` (single isomer, unassigned) [Compound 640c, (R, S) and (S, S) or (S, R) and (R, R)-5-(1,2-Dihydroxypropan-2-yl)-N′-((3,3-dimethyl-1,2,3,5,6,7-hexahydrodicyclopenta [b,e]pyridin-8-yl)carbamoyl)-3-fluorotliophene-2-sulfonimidamide], the IC50 under setting [1] lay in the range of 1000 to 5000 nM.
Still for that read-out and setting: for `Cc1c(C2CC2)nc2c(c1NC(=O)N=S(N)(=O)c1cc(C(C)(C)O)cs1)CCC2C` (single isomer, unassigned) [Compound 656d, (R, S) or (R, R) or (S, R) or (S, S)-N′-((2-Cyclopropyl-3,7-dimethyl-6,7-dihydro-5H-cyclopenta[b]pyridin-4-yl)carbamoyl)-4-(2-hydroxypropan-2-yl)thiophene-2-sulfonimidamide] the value was 1000 to 5000 nM; for `CCC1CCc2c1nc1c(c2NC(=O)N=S(N)(=O)c2sc(C(C)(C)O)cc2F)CCC1` (single isomer, unassigned) [Compound 671d, (R, R) or (R, S) or (S, R) or (S, S)-N′-((3-ethyl-1,2,3,5,6,7-hexahydrodicyclopenta [b,e]pyridin-8-yl)carbamoyl)-3-fluoro-5-(2-hydroxypropan-2-yl) thiophene-2-sulfonimidamide], 200 to 1000 nM.
In the case of `CCn1cc(F)c(S(N)(=O)=NC(=O)Nc2c3c(nc(C(F)(F)F)c2-c2ccccc2)CCC3)n1` (single isomer, unassigned) [Example 768, (S) or (R)-1-ethyl-4-fluoro-N′-((3-phenyl-2-(trifluoromethyl)-6,7-dihydro-5H-cyclopenta[b]pyridin-4-yl)carbamoyl)-1H-pyrazole-3-sulfonimidamide], under setting [3], the 50% inhibitory concentration (IC50) was 200 to 1000 nM.
For the molecule `Cc1c(C(C)C)nc2c(c1NC(=O)N=S(N)(=O)c1cnc(C(C)(C)O)s1)CCC2` (centres unmarked) [Compound 650, 2-(2-Hydroxypropan-2-yl)-N′-((2-isopropyl-3-methyl-6,7-dihydro-5H-cyclopenta[b]pyridin-4-yl)carbamoyl)thiazole-5-sulfonimidamide], the IC50 under setting [5] is 200 to 1000 nM.
On the same count and under the same terms, as for `Cc1c(C2CC2)nc2c(c1NC(=O)N=S(N)(=O)c1ccn(C(F)F)n1)CCC2` (single isomer, unassigned) [Compound 676b, (R) or (S)-N′-((2-cyclopropyl-3-methyl-6,7-dihydro-5H-cyclopenta[b]pyridin-4-yl)carbamoyl)-1-(difluoromethyl)-1H-pyrazole-3-sulfonimidamide], the figure is 1000 to 5000 nM.
Take `CC1(C)CCc2c1nc1c(c2NC(=O)N=S(N)(=O)c2cnc(C(C)(O)CO)s2)CCC1` (single isomer, unassigned) [Compound 201b, (S, R) or (R, R) or (R, S) or (S, S)-2-(1,2-Dihydroxypropan-2-yl)-N′-((3,3-dimethyl-1,2,3,5,6,7-hexahydrodicyclopenta [b,e]pyridin-8-yl)carbamoyl) thiazole-5-sulfonimidamide]: the IC50 under setting [1] was 40 to 200 nM.
In the case of `NS(=O)(=NC(=O)Nc1c2c(nc(C(F)(F)F)c1C1CC1)CCC2)c1nn(C(F)F)cc1F` (centres unmarked) [Example 615, N′-((3-cyclopropyl-2-(trifluoromethyl)-6,7-dihydro-5H-cyclopenta[b]pyridin-4-yl)carbamoyl)-1-(difluoromethyl)-4-fluoro-1H-pyrazole-3-sulfonimidamide], the IC50 under setting [2] was in the range of 200 to 1000 nM.
As to `CC1(C)CCc2c1nc1c(c2NC(=O)N=S(N)(=O)c2cc([C@](C)(O)CO)cs2)CCC1` (stereo partly drawn) [Example 623, 4-((S)-1,2-dihydroxypropan-2-yl)-N′-((3,3-dimethyl-1,2,3,5,6,7-hexahydrodicyclopenta[b,e]pyridin-8-yl)carbamoyl)thiophene-2-sulfonimidamide], the IC50 under setting [6] is 200 to 1000 nM.
With `Cc1c(C2(C)CC2)nc2c(c1NC(=O)N=S(N)(=O)c1cc(C(C)(C)O)cs1)CCC2` (centres unmarked) [Compound 669, 4-(2-Hydroxypropan-2-yl)-N′-((3-methyl-2-(1-methylcyclopropyl)-6,7-dihydro-5H-cyclopenta[b]pyridin-4-yl)carbamoyl)thiophene-2-sulfonimidamide], the IC50 under setting [5] lay in the range of 5000 to 30000 nM.
Regarding `CCn1cc(F)c(S(N)(=O)=NC(=O)Nc2c3c(nc(C(F)(F)F)c2-c2ccccc2F)CCC3)n1` (single isomer, unassigned) [Example 779, (R) or (S)-1-ethyl-4-fluoro-N′-((3-(2-fluorophenyl)-2-(trifluoromethyl)-6,7-dihydro-5H-cyclopenta[b]pyridin-4-yl)carbamoyl)-1H-pyrazole-3-sulfonimidamide], the IC50 under setting [3] was in the range of 8 to 40 nM.
For the molecule `CC1(C)CCc2c1nc1c(c2NC(=O)N=S(N)(=O)c2ccn(-c3ccccc3)n2)CCC1` (single isomer, unassigned) [Compound 659a, (S) or (R)-N′-((3,3-dimethyl-1,2,3,5,6,7-hexahydrodicyclopenta [b,e]pyridin-8-yl)carbamoyl)-1-phenyl-1H-pyrazole-3-sulfonimidamide], the IC50 under setting [1] lay in the range of 5000 to 30000 nM.
With `CN(C)Cc1ccc(S(N)(=O)=NC(=O)Nc2c3c(nc4c2CCC4)CCC3)cc1` (single isomer, unassigned) [Compound 130b, (R) or (S)-4-((dimethylamino)methyl)-N′-((1,2,3,5,6,7-hexahydro-dicyclopenta[b,e]pyridin-8-yl)carbamoyl)benzene-sulfonamidamide], the IC50 (Homo sapiens, THP-1, Table B1, class symbols, read-out: Average IC50 of compounds in hTHP-1 assay: hTHP-1 IC50) was in the range of 1000 to 5000 nM.
As to `CC(C)(O)c1ncc(S(N)(=O)=NC(=O)Nc2c3c(nc4c2CCC42CC2)CCC3)s1` (single isomer, unassigned) [Compound 136b, (R) or (S)-2-(2-hydroxy-propan-2-yl)-N′-((1′,5′,6′,7′-tetrahydro-2′H-spiro[cyclopropane-1,3′-dicyclopenta[b,e]pyridin]-8′-yl)carbamoyl)thiazole-5-sulfonimidamide], where the note is “Table B1, class symbols, read-out: Average IC50 of compounds in hTHP-1 assay: hTHP-1 IC50”, the IC50 fell in the range of 40 to 200 nM.
With `CCn1nc(S(N)(=O)=NC(=O)Nc2c3c(nc4c2CCC42CC2)CCC3)cc1CO` (centres unmarked) [Example 589, 1-Ethyl-5-(hydroxymethyl)-N′-((1′,5′,6′,7′-tetrahydro-2′H-spiro[cyclopropane-1,3′-dicyclopenta[b,e]pyridin]-8′-yl)carbamoyl)-1H-pyrazole-3-sulfonimidamide], the IC50 under setting [6] was 1000 to 5000 nM.
As to `CC(C)(O)c1csc(S(N)(=O)=NC(=O)Nc2c3c(nc(C(F)(F)F)c2C2CC2)CCC3)c1` (centres unmarked) [Example 609, N′-((3-cyclopropyl-2-(trifluoromethyl)-6,7-dihydro-5H-cyclopenta[b]pyridin-4-yl)carbamoyl)-4-(2-hydroxypropan-2-yl)thiophene-2-sulfonimidamide], the IC50 under setting [6] was in the range of 200 to 1000 nM.
As to `NS(=O)(=NC(=O)Nc1c2c(nc3c1CCC3)CCC2)c1nn(C(F)F)cc1F` (centres unmarked) [Example 735, 1-(Difluoromethyl)-4-fluoro-N′-((1,2,3,5,6,7-hexahydrodicyclopenta[b,e]pyridin-8-yl)carbamoyl)-1H-pyrazole-3-sulfonimidamide], the IC50 under setting [4] is 200 to 1000 nM.
